Assay results reported in patent US20130157954A1, “METHODS FOR TREATMENT OR PROPHYLAXIS OF KIDNEY OR LIVER DYSFUNCTION” (NPS PHARMACEUTICALS, INC., priority 2010, published 2013).

Assay: Example 1: kidney biomarkers (urea nitrogen, creatinine, GFR) in short bowel syndrome patients, every four weeks for 24 weeks; also sorted by >5% change from baseline
Format: in vivo, Human
Set-up: CREATININE (RATE BLANKED) Change from Baseline Median / GFR Median / GFR Change from Baseline Median / UREA NITROGEN Median / UREA NITROGEN Change from Baseline Median: unit not given here
Conditions: 0.05 mg/kg/day
Method: Human patients with short bowel syndrome were divided into three groups: a control group (16 total individuals) to receive placebo, an experimental group (35 total individuals) to receive teduglutide at 0.05 mg/kg/day throughout the study, and an experimental group (32 total individuals) to receive teduglutide at 0.1 mg/kg/day throughout the study. Patients were treated by subcutaneous injection of placebo or the appropriate dose of teduglutide. As individuals with short bowel syndrome are likely to experience associated liver and kidney disease, known biomarkers of liver and kidney function were monitored every four weeks, for 24 weeks. The liver biomarkers tested included total bilirubin, ALT and AST and ALP. The kidney biomarkers tested included urea nitrogen, creatinine and GFR. Before administration of placebo or teduglutide, diagnostic biomarker levels were tested to establish a baseline for each individual.
To visualize the effect of GLP-2 on the levels of the diagnostic biomarkers, the average change from baseline was calculated for the placebo and teduglutide treated groups for each visit after a baseline was established. The average change from baseline of each group is depicted in FIGS. 1-7. The numerical figures for each diagnostic biomarker at each time point are depicted in Table 1.
The raw data for this sorting is reproduced in Table 2 below.

## CC[C@H](C)[C@H](NC(=O)[C@H](Cc1ccccc1)NC(=O)[C@H](CC(=O)O)NC(=O)[C@H](CCCNC(=N)N)NC(=O)[C@H](C)NC(=O)[C@H](C)NC(=O)[C@H](CC(C)C)NC(=O)[C@H](CC(N)=O)NC(=O)[C@H](CC(=O)O)NC(=O)[C@H](CC(C)C)NC(=O)[C@@H](NC(=O)[C@@H](NC(=O)[C@H](CC(N)=O)NC(=O)[C@H](CCSC)NC(=O)[C@H](CCC(=O)O)NC(=O)[C@H](CC(=O)O)NC(=O)[C@H](CO)NC(=O)[C@H](Cc1ccccc1)NC(=O)[C@H](CO)NC(=O)CNC(=O)[C@H](CC(=O)O)NC(=O)CNC(=O)[C@@H](N)Cc1c[nH]cn1)[C@@H](C)O)[C@@H](C)CC)C(=O)N[C@@H](CC(N)=O)C(=O)N[C@@H](Cc1c[nH]c2ccccc12)C(=O)N[C@@H](CC(C)C)C(=O)N[C@H](C(=O)N[C@@H](CCC(N)=O)C(=O)N[C@H](C(=O)N[C@@H](CCCCN)C(=O)N[C@H](C(=O)N[C@H](C(=O)N[C@@H](CC(=O)O)C(=O)O)[C@@H](C)O)[C@@H](C)CC)[C@@H](C)O)[C@@H](C)CC [teduglutide]
DW4
  CREATININE (RATE BLANKED) Change from Baseline Median: 1.5
  CREATININE (RATE BLANKED) Median: 80 µmol/L
  GFR Change from Baseline Median: −0.6
  GFR Median: 77.0
  UREA NITROGEN Change from Baseline Median: −0.4
  UREA NITROGEN Median: 4.9
DW8
  CREATININE (RATE BLANKED) Change from Baseline Median: 0.0
  CREATININE (RATE BLANKED) Median: 71 µmol/L
  GFR Change from Baseline Median: 1.1
  UREA NITROGEN Change from Baseline Median: −0.3
  UREA NITROGEN Median: 5.2
DW12
  CREATININE (RATE BLANKED) Change from Baseline Median: 8.0
  CREATININE (RATE BLANKED) Median: 80 µmol/L
  GFR Change from Baseline Median: −5.0
  UREA NITROGEN Change from Baseline Median: −0.5
  UREA NITROGEN Median: 4.4
DW16
  CREATININE (RATE BLANKED) Change from Baseline Median: 0.0
  CREATININE (RATE BLANKED) Median: 79 µmol/L
  GFR Change from Baseline Median: 0.9
  UREA NITROGEN Change from Baseline Median: −0.3
  UREA NITROGEN Median: 4.4
DW20
  CREATININE (RATE BLANKED) Change from Baseline Median: 0.0
  GFR Change from Baseline Median: 0.9
  GFR Median: 74.0
  UREA NITROGEN Change from Baseline Median: −0.3
  UREA NITROGEN Median: 5.2
DW 24
  CREATININE (RATE BLANKED) Change from Baseline Median: −0.5
  CREATININE (RATE BLANKED) Median: 80 µmol/L
  GFR Change from Baseline Median: 1.7
  UREA NITROGEN Change from Baseline Median: −0.7
  UREA NITROGEN Median: 4.9
Week 4
  CREATININE (RATE BLANKED) change from baseline <−5%, number of patients: 7
  CREATININE (RATE BLANKED) change from baseline <−5%, percent of patients: (20.0%)
  CREATININE (RATE BLANKED) change from baseline >5%, number of patients: 14
  CREATININE (RATE BLANKED) change from baseline >5%, percent of patients: (40.0%)
  CREATININE (RATE BLANKED) change from baseline −5% <= and <=5%, number of patients: 9
  CREATININE (RATE BLANKED) change from baseline −5% <= and <=5%, percent of patients: (25.7%)
  GFR change from baseline <−5%, number of patients: 13
  GFR change from baseline <−5%, percent of patients: (37.1%)
  GFR change from baseline >5%, number of patients: 8
  GFR change from baseline >5%, percent of patients: (22.9%)
  GFR change from baseline −5% <= and <=5%, number of patients: 9
  GFR change from baseline −5% <= and <=5%, percent of patients: (25.7%)
  UREA NITROGEN change from baseline <−5%, number of patients: 16
  UREA NITROGEN change from baseline <−5%, percent of patients: (45.7%)
  UREA NITROGEN change from baseline >5%, number of patients: 7
  UREA NITROGEN change from baseline >5%, percent of patients: (20.0%)
  UREA NITROGEN change from baseline −5% <= and <=5%, number of patients: 7
  UREA NITROGEN change from baseline −5% <= and <=5%, percent of patients: (20.0%)
Week 8
  CREATININE (RATE BLANKED) change from baseline <−5%, number of patients: 11
  CREATININE (RATE BLANKED) change from baseline <−5%, percent of patients: (31.4%)
  CREATININE (RATE BLANKED) change from baseline >5%, number of patients: 10
  CREATININE (RATE BLANKED) change from baseline >5%, percent of patients: (28.6%)
  CREATININE (RATE BLANKED) change from baseline −5% <= and <=5%, number of patients: 8
  CREATININE (RATE BLANKED) change from baseline −5% <= and <=5%, percent of patients: (22.9%)
  GFR change from baseline <−5%, number of patients: 9
  GFR change from baseline <−5%, percent of patients: (25.7%)
  GFR change from baseline >5%, number of patients: 12
  GFR change from baseline >5%, percent of patients: (34.3%)
  GFR change from baseline −5% <= and <=5%, number of patients: 7
  GFR change from baseline −5% <= and <=5%, percent of patients: (20.0%)
  UREA NITROGEN change from baseline <−5%, number of patients: 14
  UREA NITROGEN change from baseline <−5%, percent of patients: (40.0%)
  UREA NITROGEN change from baseline >5%, number of patients: 10
  UREA NITROGEN change from baseline >5%, percent of patients: (28.6%)
  UREA NITROGEN change from baseline −5% <= and <=5%, number of patients: 5
  UREA NITROGEN change from baseline −5% <= and <=5%, percent of patients: (14.3%)
Week 12
  CREATININE (RATE BLANKED) change from baseline <−5%, number of patients: 7
  CREATININE (RATE BLANKED) change from baseline <−5%, percent of patients: (20.0%)
  CREATININE (RATE BLANKED) change from baseline >5%, number of patients: 16
  CREATININE (RATE BLANKED) change from baseline >5%, percent of patients: (45.7%)
  CREATININE (RATE BLANKED) change from baseline −5% <= and <=5%, number of patients: 4
  CREATININE (RATE BLANKED) change from baseline −5% <= and <=5%, percent of patients: (11.4%)
  GFR change from baseline <−5%, number of patients: 15
  GFR change from baseline <−5%, percent of patients: (42.9%)
  GFR change from baseline >5%, number of patients: 6
  GFR change from baseline >5%, percent of patients: (17.1%)
  GFR change from baseline −5% <= and <=5%, number of patients: 5
  GFR change from baseline −5% <= and <=5%, percent of patients: (14.3%)
  UREA NITROGEN change from baseline <−5%, number of patients: 17
  UREA NITROGEN change from baseline <−5%, percent of patients: (48.6%)
  UREA NITROGEN change from baseline >5%, number of patients: 6
  UREA NITROGEN change from baseline >5%, percent of patients: (17.1%)
  UREA NITROGEN change from baseline −5% <= and <=5%, number of patients: 4
  UREA NITROGEN change from baseline −5% <= and <=5%, percent of patients: (11.4%)
Week 16
  CREATININE (RATE BLANKED) change from baseline <−5%, number of patients: 8
  CREATININE (RATE BLANKED) change from baseline <−5%, percent of patients: (22.9%)
  CREATININE (RATE BLANKED) change from baseline >5%, number of patients: 8
  CREATININE (RATE BLANKED) change from baseline >5%, percent of patients: (22.9%)
  CREATININE (RATE BLANKED) change from baseline −5% <= and <=5%, number of patients: 12
  CREATININE (RATE BLANKED) change from baseline −5% <= and <=5%, percent of patients: (34.3%)
  GFR change from baseline <−5%, number of patients: 7
  GFR change from baseline <−5%, percent of patients: (20.0%)
  GFR change from baseline >5%, number of patients: 11
  GFR change from baseline >5%, percent of patients: (31.4%)
  GFR change from baseline −5% <= and <=5%, number of patients: 10
  GFR change from baseline −5% <= and <=5%, percent of patients: (28.6%)
  UREA NITROGEN change from baseline <−5%, number of patients: 12
  UREA NITROGEN change from baseline <−5%, percent of patients: (34.3%)
  UREA NITROGEN change from baseline >5%, number of patients: 10
  UREA NITROGEN change from baseline >5%, percent of patients: (28.6%)
  UREA NITROGEN change from baseline −5% <= and <=5%, number of patients: 6
  UREA NITROGEN change from baseline −5% <= and <=5%, percent of patients: (17.1%)
Week 20
  CREATININE (RATE BLANKED) change from baseline <−5%, number of patients: 9
  CREATININE (RATE BLANKED) change from baseline <−5%, percent of patients: (25.7%)
  CREATININE (RATE BLANKED) change from baseline >5%, number of patients: 10
  CREATININE (RATE BLANKED) change from baseline >5%, percent of patients: (28.6%)
  CREATININE (RATE BLANKED) change from baseline −5% <= and <=5%, number of patients: 8
  CREATININE (RATE BLANKED) change from baseline −5% <= and <=5%, percent of patients: (22.9%)
  GFR change from baseline <−5%, number of patients: 10
  GFR change from baseline <−5%, percent of patients: (28.6%)
  GFR change from baseline >5%, number of patients: 10
  GFR change from baseline >5%, percent of patients: (28.6%)
  GFR change from baseline −5% <= and <=5%, number of patients: 7
  GFR change from baseline −5% <= and <=5%, percent of patients: (20.0%)
  UREA NITROGEN change from baseline <−5%, number of patients: 13
  UREA NITROGEN change from baseline <−5%, percent of patients: (37.1%)
  UREA NITROGEN change from baseline >5%, number of patients: 7
  UREA NITROGEN change from baseline >5%, percent of patients: (20.0%)
  UREA NITROGEN change from baseline −5% <= and <=5%, number of patients: 7
  UREA NITROGEN change from baseline −5% <= and <=5%, percent of patients: (20.0%)
Week 24
  CREATININE (RATE BLANKED) change from baseline <−5%, number of patients: 8
  CREATININE (RATE BLANKED) change from baseline <−5%, percent of patients: (22.9%)
  CREATININE (RATE BLANKED) change from baseline >5%, number of patients: 9
  CREATININE (RATE BLANKED) change from baseline >5%, percent of patients: (25.7%)
  CREATININE (RATE BLANKED) change from baseline −5% <= and <=5%, number of patients: 9
  CREATININE (RATE BLANKED) change from baseline −5% <= and <=5%, percent of patients: (25.7%)
  GFR change from baseline <−5%, number of patients: 8
  GFR change from baseline <−5%, percent of patients: (22.9%)
  GFR change from baseline >5%, number of patients: 10
  GFR change from baseline >5%, percent of patients: (28.6%)
  GFR change from baseline −5% <= and <=5%, number of patients: 8
  GFR change from baseline −5% <= and <=5%, percent of patients: (22.9%)
  UREA NITROGEN change from baseline <−5%, number of patients: 17
  UREA NITROGEN change from baseline <−5%, percent of patients: (48.6%)
  UREA NITROGEN change from baseline >5%, number of patients: 7
  UREA NITROGEN change from baseline >5%, percent of patients: (20.0%)
  UREA NITROGEN change from baseline −5% <= and <=5%, number of patients: 2
  UREA NITROGEN change from baseline −5% <= and <=5%, percent of patients: (5.7%)
